In patent US8986696B2, “Trans-capsular administration of p38 map kinase inhibitors into orthopedic joints” (DePuy Mitek, Inc., priority 2007, dated 2015):

Key:
[1] = tested on: injured cartilage explants; assay type: cell-based
Text: (§1) The device comprises a vertical rail that guides a sliding weight from 0.1 kg to 3 kg directly onto a force transducer which is situated at the bottom of the device. A sphere-shaped 2 mm indenter resting on a specimen is located at the bottom of the vertical rail. The indenter is held by a stop screw. The specimen is rigidly attached to a tissue holder underneath the indenter, to avoid side movements, the specimen is rigidly attached to the tissue holder. In this manner, the force transducer transduces a force indirectly onto the specimen. Adjusting the weight of a mass and height from which the mass drops varies the magnitude of the intended impact. For example, a weight mass (e.g., 500 mg) held by a weight holder can be released from a height of e.g., 36 cm and dropped onto the force transducer.

[2] = tested on: injured cartilage explants, NO production; assay: drop tower design model: NO production; assay type: cell-based, bovine; details: cocktail of cytokines
Text: as §1, with “For example, a weight mass (e.g., 500 mg) held by a weight holder can be released from a height of e.g., 36 cm and dropped onto the force transducer.” left out
In the first method, bovine or human PBMCs were freshly prepared using Ficoll gradient by Lampire Biological Laboratories, Inc. PBMCs in RPMI w/10% FCS at delivery were spun down at 1500 rpm for twenty minutes and the cell pellet was washed twice with 1×PBS to wash off the residual Ficoll. […] Each conditioned medium was assessed for levels of pro-inflammatory cytokines to ensure their secretion from PBMC. […]
Nitrate/Nitrite was measured using the Griess reaction (Green L. C. et al., “Analysis of Nitrate, Nitrite, and [15N]nitrate in Biological Fluids,” Anal. Biochem. 126: 131-138 (1982)) with a Nitrate/Nitrite Colorimetric Assay Kit (Cayman Chemicals), as described in Example III above.

JNK = JNK inhibition; assay type: biochemical
[3] = tested on: LPS-induced IL-1 in hPBMC; assay: LPS-induced IL-1 in hPBMC; assay type: cell-based, human
[4] = tested on: LPS-induced TNF human peripheral blood mononuclear cells (hPBMC); assay: LPS-induced TNF in hPBMC; assay type: cell-based
[5] = biological target: inactivated p38 MAP kinase (Homo sapiens, UniProt Q16539); assay: binding to inactivated p38 MAP kinase; details: read-out: binds to inactivated p38 MAP kinase, Kd
Chain of inactivated p38 MAP kinase (Q16539 whole entry): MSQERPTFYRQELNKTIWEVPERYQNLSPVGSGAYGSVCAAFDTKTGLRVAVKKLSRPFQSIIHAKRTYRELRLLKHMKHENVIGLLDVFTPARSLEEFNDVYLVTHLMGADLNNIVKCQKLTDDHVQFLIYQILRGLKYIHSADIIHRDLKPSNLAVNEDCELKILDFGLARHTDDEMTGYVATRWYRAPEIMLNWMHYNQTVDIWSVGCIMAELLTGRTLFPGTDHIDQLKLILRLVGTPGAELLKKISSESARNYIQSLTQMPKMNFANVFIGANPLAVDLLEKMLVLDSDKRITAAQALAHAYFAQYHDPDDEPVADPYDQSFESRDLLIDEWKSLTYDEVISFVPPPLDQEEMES

## CC(=O)Oc1cccc2c1C(=O)c1c(OC(C)=O)cc(C(=O)O)cc1C2=O [Diacerein, reference compound]
[1]
  cytotoxicity (LDH, words): tolerant

## OCCC#Cc1nc(-c2ccc(F)cc2)c(-c2ccncc2)n1CCCc1ccccc1 [JNJ 3026582 (RWJ 67657), 4-[4-(4-fluorophenyl)-1-(3-phenylpropyl)-5-(4-pyridinyl)-1H-imidazol-2-yl]-3-butyn-1-ol]
[2]
  NO production, inhibition: dose-dependently inhibited

## C[C@H](Nc1nccc(-c2c(-c3ccc(F)cc3)nc3nc(N)ccn23)n1)c1ccccc1 [JNJ 7583979 (RWJ 351958)]
JNK
  IC50: 0.012 µM

## CC(=O)N1CCN(c2c(-c3ccncc3)c(-c3ccc(F)cc3)c(C#N)n2C)CC1 [JNJ 17089540 (RWJ 669307)]
[3]
  IC50: 0.25 µM
[4]
  IC50: 0.22 µM
[5]
  Kd: 0.1 µM
